From PubChem BioAssay (NCI)
Where “and” joins values, the source holds several entries; their conditions need not be identical. Equal entries are not always repeated.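 In this assay, cells in 96-well plates receive the compound at five concentrations for 48 hours. Endpoints are linearly interpolated between the surrounding concentrations. Here, GI50 denotes the concentration required for 50% inhibition of growth. The concentration for full growth arrest is given as TGI.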

How the values were obtained:
Assay in all cases: NCI tumour cell line growth inhibition, 48 h
[1] = test system: M19-MEL melanoma
[2] = test system: KM20L2 colon
[3] = test system: DLD-1 colon
[4] = test system: XF 498 CNS
[5] = test system: LXFL 529 NSCLC
[6] = test system: DMS 273 small cell lung
[7] = test system: MDA-N
[8] = test system: HOP-18 NSCLC
[9] = test system: RXF-631 renal
[10] = test system: P388/ADR leukemia

COc1cc([C@H]2c3cc4c(cc3[C@H](NCc3ccc([N+](=O)[O-])cc3)C3COC(=O)[C@H]32)OCO4)cc(OC)c1O (stereo partly drawn)
TGI [1]: > 100 µM
TGI [2]: 14.4 µM
TGI [3]: > 43.5 µM
TGI [4]: 20.4 µM
TGI [5]: > 76 µM
TGI [6]: > 100 µM

Clc1cccc(N2CCN(CCN3CCc4c([nH]c5ccccc45)C3c3cccnc3)CC2)c1 (stereo not drawn)
TGI [1]: > 100 µM
TGI [2]: 77.8 µM
TGI [3]: > 100 µM
TGI [7]: > 100 µM
TGI [8]: > 100 µM
TGI [4]: > 100 µM
TGI [5]: > 100 µM
TGI [6]: > 100 µM

Clc1ccc(C(c2ccc(Cl)cc2)N2CCNCC2)cc1
TGI [7]: 3.62 µM

O=c1cc(-c2ccccc2)nc(/C=C(\O)c2ccncc2)n1-c1ccccc1
TGI [1]: > 100 µM
TGI [2]: > 100 µM
TGI [3]: > 100 µM
TGI [8]: > 100 µM
TGI [5]: > 100 µM
TGI [6]: > 100 µM

O=C(Nc1ccc2[nH]c(C(=O)N3CC(CCl)c4c3cc([N+](=O)[O-])c3ccccc43)cc2c1)c1cc2ccccc2o1 (stereo not drawn)
GI50 [7]: > 1100 µM
TGI [7]: > 1100 µM

CCOc1ccccc1N1C(=O)C(=O)C(c2nc3ccccc3o2)/C(=N\N)C1=O (stereo not drawn)
TGI [1]: > 100 µM
TGI [2]: > 100 µM
TGI [3]: > 100 µM
TGI [5]: > 100 µM
TGI [6]: > 100 µM

CSc1nc(SC)c2c(C(N)=S)[nH]nc2n1
TGI [1]: 91.7 µM
TGI [2]: 85 µM
TGI [3]: > 100 µM
TGI [5]: > 100 µM
TGI [6]: 98.3 µM
TGI [9]: 93.7 µM

CC(C)(c1ccc(Oc2ccc(C#N)c(C#N)c2)cc1)c1ccc(Oc2ccc(C#N)c(C#N)c2)cc1
GI50 [1]: > 100 µM
TGI [1]: > 100 µM
GI50 [2]: > 100 µM
TGI [2]: > 100 µM
GI50 [3]: > 100 µM
TGI [3]: > 100 µM
GI50 [5]: > 100 µM
TGI [5]: > 100 µM
GI50 [9]: > 100 µM
TGI [9]: > 100 µM

CC1=C(C(=O)Nc2ccc([N+](=O)[O-])cc2)C(c2ccccc2O)C(C(=O)Nc2ccc([N+](=O)[O-])cc2)=C(C)N1
TGI [1]: 64.4 µM
TGI [2]: 35.8 µM
TGI [3]: 57.8 µM
TGI [4]: 31.2 µM
TGI [5]: 48.7 µM
TGI [6]: 47.1 µM
TGI [9]: 36.6 µM

CCOC(=O)c1cc2c(cn1)[nH]c1cccc(N)c12
TGI [1]: > 100 µM
TGI [3]: > 100 µM
TGI [8]: > 100 µM
TGI [4]: > 100 µM
TGI [5]: > 100 µM
TGI [6]: > 100 µM

Nc1nc(NC2C=C(CO)C(O)C2O)c([N+](=O)[O-])c(=O)[nH]1 (stereo not drawn)
TGI [1]: > 100 µM
TGI [2]: > 100 µM
TGI [3]: > 100 µM
TGI [8]: > 100 µM
TGI [4]: > 100 µM
TGI [5]: > 100 µM
TGI [6]: > 100 µM

OC(C1CO1)C(O)C1CO1 (stereo not drawn)
TGI [1]: 150 µM
TGI [2]: 150 µM
TGI [3]: > 150 µM
GI50 [7]: 92.2 µM
TGI [7]: 134 µM and 284 µM
TGI [10]: 150 µM
TGI [8]: 150 µM
TGI [4]: 133 µM
TGI [6]: 76.9 µM

CCCCN=C(NC#N)N(Cc1ccccc1)Cc1ccccc1
TGI [1]: 35.8 µM
TGI [2]: 52.4 µM
TGI [3]: 36.4 µM
TGI [8]: > 100 µM
TGI [5]: 32.8 µM
TGI [6]: 37.1 µM

CC(C)(O)[C@@H]1CC[C@@]2(C)CCC[C@H](O)[C@H]2C1
TGI [1]: > 100 µM
TGI [2]: > 100 µM
TGI [3]: > 100 µM
TGI [8]: > 100 µM
TGI [4]: > 100 µM
TGI [5]: > 100 µM
TGI [6]: > 100 µM
TGI [9]: > 100 µM

CCOC(=O)NC1=C(N2CC2)C(=O)C(NC(=O)OCC)=C(N2CC2)C1=O
TGI [1]: 19.2 µM and 12.5 µM
TGI [2]: 31.6 µM and 45.3 µM
GI50 [3]: 8.56 µM
TGI [3]: 38 µM and 78.9 µM
TGI [7]: 5.41 µM
TGI [10]: 17.6 µM
GI50 [8]: 8.57 µM
TGI [8]: 24.4 µM and 49.9 µM
TGI [4]: 8.75 µM
GI50 [5]: 4.34 µM
TGI [5]: 15 µM and 9.51 µM
GI50 [6]: 1.01 µM
TGI [6]: 20.5 µM and 41.4 µM
GI50 [9]: 6.73 µM and 14.4 µM
TGI [9]: 30.3 µM and 54.6 µM

COc1ccc2nc(NCN3C(=O)c4ccccc4C3=O)sc2c1
TGI [7]: > 100 µM

Fc1cccc(CSc2ncnc3c2ncn3C2CCCS2)c1 (stereo not drawn)
TGI [7]: 56.8 µM

NC(=S)N/N=C/c1ccc(O)cn1
GI50 [1]: 15.4 µM and 9.44 µM
GI50 [2]: 31.7 µM and 19.7 µM and 10.6 µM
TGI [2]: > 1500 µM
GI50 [3]: 39.6 µM and 31 µM
TGI [3]: > 1500 µM
TGI [7]: > 1180 µM
GI50 [10]: 0.943 µM and 1.5 µM
TGI [10]: 154 µM and 24.5 µM
GI50 [8]: 21 µM
TGI [8]: 134 µM and 974 µM
GI50 [4]: 15.6 µM
TGI [4]: 94 µM and 168 µM
GI50 [6]: 8.83 µM and 5.35 µM
TGI [6]: 31.1 µM and 37 µM and 16.7 µM

CC(C)[NH-].CC(C)[NH-].O.O.[Cl][Pt+2][Cl]
GI50 [1]: 21.3 µM
TGI [1]: 77.1 µM
GI50 [2]: 15.2 µM
TGI [2]: 141 µM
GI50 [3]: 45.1 µM
TGI [3]: 238 µM
GI50 [7]: 17.4 µM
TGI [7]: 106 µM
GI50 [10]: 8.11 µM
TGI [10]: 59.9 µM
GI50 [8]: 60.5 µM
TGI [8]: 337 µM
GI50 [4]: 16 µM
TGI [4]: 51.6 µM

Cc1cc(Oc2cnc(=O)[nH]c2)cs1
TGI [7]: > 100 µM
